Results from patent US11591604B2, “Gene expression in Bacteroides” (Massachusetts Institute of Technology, priority 2015, dated 2023).

system: NanoLuc; assay: NanoLuc luciferase reporter expression from constitutive promoters and RBSs integrated with pNBU2; assay type: cell-based, B. thetaiotaomicron; conditions: RBS combined with promoter PBT1311, NanoLuc reporter, three biological replicates
Text: FIGS. 1A-1G. Genetic parts to control expression in B. thetaiotaomicron. (FIG. 1A) The ranges of gene expression are shown for the different gene regulation systems provided herein. (FIG. 1B) IntN2 catalyzes stable integration of pNBU2-based expression constructs into one of two attBT2 sites in the B. thetaiotaomicron genome. The two attBT2 sites (attBT2-1 at nucleotide (nt) 6,217,227 and attBT2-2 at nt 6,138,320) are in the 3′ ends of tRNA^Ser genes (BT_t71 and BT_t70, respectively). (FIG. 1C) Constitutive promoters and ribosome binding sites for the construction of gene expression libraries. The putative −33 and −7 regions of the PBT1311 promoter, the Shine-Delgarno sequence, and the start codon are indicated by black boxes. Numbers below the black boxes represent nucleotide locations relative the PBT1311 transcription start site. The 26 nt sequences introduced in the PAM promoters are shown (see also FIGS. 6A-6B). Numbers at the edges of the boxes indicate the PBT1311 nucleotides replaced or the insertion site within the promoter. The location of residues randomized in the rpiL* RBS library are indicated with gray arrows (for library A: nt −14, −13, −12; for library B: nt −21, −18, −15; and for library C: nt −17, −16, −11; nt numbering is relative to the translation start site). (FIG. 1D) Activity was measured for a set of constitutive promoters and their cognate RBSs. Furthermore, a set of constitutive promoters (PBT1311, PAM1, PAM2, PAM3, PAM4) was combined with RBSs of varying strengths. Gene expression was measured using a luciferase reporter (NanoLuc). (FIG. 1E) Three large RBS libraries were constructed and combined with promoter PBT1311 to span 10^3-fold in gene expression. For reference, the parent rpiL* RBS is indicated with a black arrow. For D and E, error bars represent the standard deviation of three independent biological replicates made on separate days. (FIG. 1F) The strength of each RBS was compared to the predicted free energy of folding for the mRNA (ΔGfold,). (FIG. 1G) Strong (SEQ ID NO: 210) and weak (SEQ ID NO: 211) consensus sequences for the rpiL* −21 to −11 RBS region targeted by mutagenesis (residue locations are stated relative to the translation start site) are provided. Frequency logos were generated for the 11 strongest and 11 weakest RBSs by comparing the frequency of each nucleotide at each position in that group with the frequency of that nucleotide in that position in the full library. Position −20 and −19 were not randomized and are thus are not shown in the frequency logos.
All genetic parts in this study were characterized using the integration vector pNBU2 to ensure genetic stability of the constructs (FIG. 1B). The pNBU2 plasmid encodes the intN2 tyrosine integrase, which mediates sequence-specific recombination between the attN site of pNBU2 and one of two attBT sites located in the 3′ ends of the two tRNA^Ser genes, BT_t70 and BT_t71, on the B. thetaiotaomicron chromosome (FIG. 1B). Insertion of the pNBU2 plasmid inactivates the tRNA^Ser gene, and simultaneous insertion into both BT_t70 and BT_t71 is unlikely due to the essentiality of tRNA^Ser. pNBU2-based vectors have been used for single-copy complementation in B. thetaiotaomicron in in vitro studies (Koropatkin N M et al. Nat. Rev. Microbiol. 10:323-35, 2012) and in vivo mouse models (Martens E C et al. Cell Host Microbe 4:447-57, 2008).
B. thetaiotaomicron genetic parts were characterized with NanoLuc luciferase (Hall M P et al. ACS Chem. Biol. 7:1848-1857, 2012), which is a small (19 kDa) modified shrimp luciferase. Efforts to use members of the green fluorescent protein family and a FMN-based fluorescent reporter were not successful. NanoLuc oxidizes the exogenously-added substrate furimazine to produce glow-type bioluminescence (Emax=460 nm) with a signal half-life of 2 hr. […]

Substance	Average Luminescence (RLU/CFU)
A38: RBS, SEQ ID NO: 114 (DNA TCCCGCATTTTAAAATAAAATAAATTATTCCTTTAGTTAAACGAAT; chemistry not fully specified)	0.003824
A39: RBS, SEQ ID NO: 116 (DNA TCCCGCATTTTAAAATAAAATAAATTATTGTTTTATTTAAACGAAT; chemistry not fully specified)	0.003302
A40: RBS, SEQ ID NO: 118 (DNA TCCCGCATTTTAAAATAAAATAAATTATTTGTTTATTTAAACGAAT; chemistry not fully specified)	0.002992
A41: RBS, SEQ ID NO: 123 (DNA TCCCGCATTTTAAAATAAAATAAATTATTATTTTATTTAAACGAAT; chemistry not fully specified)	0.002417
A42: RBS, SEQ ID NO: 130 (DNA TCCCGCATTTTAAAATAAAATAAATTATTGGTTTACTTAAACGAAT; chemistry not fully specified)	0.001478
A43: RBS, SEQ ID NO: 131 (DNA TCCCGCATTTTAAAATAAAATAAATTATTCGTTTAATTAAACGAAT; chemistry not fully specified)	0.001461
A44: RBS, SEQ ID NO: 135 (DNA TCCCGCATTTTAAAATAAAATAAATTATTCGTTTATTTAAACGAAT; chemistry not fully specified)	0.0006478
A45: RBS, SEQ ID NO: 137 (DNA TCCCGCATTTTAAAATAAAATAAATTATTCGTTTACTTAAACGAAT; chemistry not fully specified)	0.0005331
B1: RBS, SEQ ID NO: 1 (DNA TCCCGCATTTTAAAATAAAATAAATTATTCGTTTAGTTAAACGAAT; chemistry not fully specified)	0.09025
B2: RBS, SEQ ID NO: 2 (DNA TCCCGCATTTTAAAATAAAATAAATGATATAATTAATTAAACGAAT; chemistry not fully specified)	0.06325
B3: RBS, SEQ ID NO: 3 (DNA TCCCGCATTTTAAAATAAAATAAATAATATAATTAATTAAACGAAT; chemistry not fully specified)	0.06083
B4: RBS, SEQ ID NO: 4 (DNA TCCCGCATTTTAAAATAAAATAAATAATTTAATTAATTAAACGAAT; chemistry not fully specified)	0.05153
B5: RBS, SEQ ID NO: 5 (DNA TCCCGCATTTTAAAATAAAATAAATTATATAATTAATTAAACGAAT; chemistry not fully specified)	0.04825
B6: RBS, SEQ ID NO: 6 (DNA TCCCGCATTTTAAAATAAAATAAATAATATACTTAATTAAACGAAT; chemistry not fully specified)	0.04723
B7: RBS, SEQ ID NO: 8 (DNA TCCCGCATTTTAAAATAAAATAAATAATCTACTTAATTAAACGAAT; chemistry not fully specified)	0.04704
B8: RBS, SEQ ID NO: 9 (DNA TCCCGCATTTTAAAATAAAATAAATTATTTAATTAATTAAACGAAT; chemistry not fully specified)	0.04684
B9: RBS, SEQ ID NO: 10 (DNA TCCCGCATTTTAAAATAAAATAAATTATCTAATTAATTAAACGAAT; chemistry not fully specified)	0.04634
B10: RBS, SEQ ID NO: 12 (DNA TCCCGCATTTTAAAATAAAATAAATTATATATTTAATTAAACGAAT; chemistry not fully specified)	0.04421
B11: RBS, SEQ ID NO: 18 (DNA TCCCGCATTTTAAAATAAAATAAATAATGTAATTAATTAAACGAAT; chemistry not fully specified)	0.03308

same assay, conditions: set of 8 RBSs, under control of PBT1311, NanoLuc reporter

Substance	Expression Level (RLU/CFU)
B1: RBS, SEQ ID NO: 1 (DNA TCCCGCATTTTAAAATAAAATAAATTATTCGTTTAGTTAAACGAAT; chemistry not fully specified)	9.02E-02
